Measurements reported in ChEMBL document CHEMBL1123104, “Enzyme-activated irreversible inhibitors of monoamine oxidase: phenylallylamine structure-activity relationships” (J Med Chem, 1985).

Target: T1, Monoamine oxidase (Rattus norvegicus, UniProt P19643+P21396)
T1 sequence (P19643 whole entry): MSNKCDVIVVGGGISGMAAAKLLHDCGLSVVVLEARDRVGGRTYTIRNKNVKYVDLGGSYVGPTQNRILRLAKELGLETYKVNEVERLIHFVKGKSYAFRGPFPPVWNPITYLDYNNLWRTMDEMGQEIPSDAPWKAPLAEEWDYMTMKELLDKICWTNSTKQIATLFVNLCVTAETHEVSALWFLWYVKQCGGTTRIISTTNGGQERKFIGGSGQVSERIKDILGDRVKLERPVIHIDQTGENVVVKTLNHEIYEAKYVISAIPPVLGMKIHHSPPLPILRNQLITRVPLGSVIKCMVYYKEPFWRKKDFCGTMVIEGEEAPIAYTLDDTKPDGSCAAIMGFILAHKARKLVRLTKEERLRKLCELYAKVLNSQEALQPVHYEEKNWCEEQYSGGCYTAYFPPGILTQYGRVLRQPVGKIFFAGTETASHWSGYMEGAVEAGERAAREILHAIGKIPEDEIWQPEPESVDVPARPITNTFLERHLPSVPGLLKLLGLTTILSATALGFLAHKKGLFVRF
T1 sequence (P21396 whole entry): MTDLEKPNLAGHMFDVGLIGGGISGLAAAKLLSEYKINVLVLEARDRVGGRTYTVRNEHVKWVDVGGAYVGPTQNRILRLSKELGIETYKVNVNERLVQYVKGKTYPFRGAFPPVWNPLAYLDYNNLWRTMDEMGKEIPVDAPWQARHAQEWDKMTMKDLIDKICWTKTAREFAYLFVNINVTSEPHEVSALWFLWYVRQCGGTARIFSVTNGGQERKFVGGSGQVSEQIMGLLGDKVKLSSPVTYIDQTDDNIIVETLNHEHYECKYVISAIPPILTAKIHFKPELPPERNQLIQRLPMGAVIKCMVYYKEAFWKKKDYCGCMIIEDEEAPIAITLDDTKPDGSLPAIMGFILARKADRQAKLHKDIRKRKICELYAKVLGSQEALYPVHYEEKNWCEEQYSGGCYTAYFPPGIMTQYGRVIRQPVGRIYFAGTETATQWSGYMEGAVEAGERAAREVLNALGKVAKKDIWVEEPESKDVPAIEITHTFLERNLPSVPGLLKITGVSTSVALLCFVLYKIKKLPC
Experiment: Inhibitory activity against rat brain mitochondrial Monoamine oxidase

Compound | IC50 [nM]
COc1cccc(/C(=C\F)CN)c1.Cl | 5
Cc1ccc(/C(=C\F)CN)cc1.Cl | 10
COc1ccc(/C(=C\F)CN)cc1OC.Cl | 25
Cl.NC/C(=C/Br)c1ccccc1 | 40000
COc1ccccc1/C(=C\F)CN.Cl | 25
Cl.NC/C(=C/F)c1cccc(O)c1 | 50
Cl.NC/C(=C/F)c1ccccc1 | 18
Cl.NC/C(=C/F)c1ccc(O)c(O)c1 | 100
Cl.NCC(=C(Br)Br)c1ccccc1 | 500000
Cl.NC/C(=C/F)c1cccc(C(F)(F)F)c1 | 7
C=CCN [ALLYLAMINE] | 500000
Cl.NC/C(=C\Cl)c1ccccc1 | 500000
C=C(CN)c1ccccc1.Cl | 400000
Cl.NC/C(=C/Cl)c1ccccc1 | 100000
Cl.NC/C(=C\F)c1ccccc1 | 150
Cl.NC/C(=C/F)c1ccc(Cl)cc1 | 20
Cl.NCC(=C(F)F)c1ccccc1 | 10000
